Molecular target: T1, EP4 receptor (Homo sapiens, UniProt P35408)
T1 construct: expressed in transfected cells; host or cells: Flp-In CHO cells (Flpin-CHO-EP4)
Assay: Antagonist activity against EP4 receptor by cAMP assay
Assay type: cell-based
Details: Flpin-CHO-EP4 cells, PGE2 stimulation, cAMP readout; starting concentration 5 μM, dilution factor 4
Experimental: Eu-CAMP tracer (1/50) was diluted with a lysis buffer and 10 μL was added to per well of the detection plate. Ulight-anti-CAMP (1/150) was diluted with the lysis buffer and 10 μL was added to per well of the detection plate, and incubated at room temperature for 1 h.

T1 sequence (P35408 whole entry): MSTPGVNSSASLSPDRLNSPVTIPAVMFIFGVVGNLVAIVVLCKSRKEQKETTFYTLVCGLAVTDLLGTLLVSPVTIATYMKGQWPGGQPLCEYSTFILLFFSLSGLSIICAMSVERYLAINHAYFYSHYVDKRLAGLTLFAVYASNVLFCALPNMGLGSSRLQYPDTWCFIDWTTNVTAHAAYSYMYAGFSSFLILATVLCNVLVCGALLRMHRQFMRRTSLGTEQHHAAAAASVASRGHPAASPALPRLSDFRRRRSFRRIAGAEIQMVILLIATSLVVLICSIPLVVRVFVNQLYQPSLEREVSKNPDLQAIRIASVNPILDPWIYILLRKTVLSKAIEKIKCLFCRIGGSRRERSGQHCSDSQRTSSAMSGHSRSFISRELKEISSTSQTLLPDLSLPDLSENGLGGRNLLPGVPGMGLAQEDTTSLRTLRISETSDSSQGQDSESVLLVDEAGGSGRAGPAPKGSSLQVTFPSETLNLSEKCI

IC50: 6.59 nM
SMILES: C[C@H](NC(=O)c1c(C(F)F)nn(C)c1Oc1cccc(S(F)(F)(F)(F)F)c1)c1ccc(C(=O)O)cc1 [Example 1, 4-(1-(3-(difluoromethyl)-1-methyl-5-(3-(pentafluorothio)phenoxy)-1H-pyrazole-4-carboxamido)ethyl)benzoic acid]
